According to publication PMC3573010, “Bacillus megaterium Has Both a Functional BluB Protein Required for DMB Synthesis and a Related Flavoprotein That Forms a Stable Radical Species” (PLoS ONE, 2013):

Tests used:
BluB(Bm) = target: T1, BluB(Bm) (Priestia megaterium, UniProt D5DCL0); assay: HPLC of DMB formed; format: biochemical; details: O2 required; […] Tris-HCl pH […] NaCl, […] DTT; room temperature; FMN reduced in situ by NADH
T1 construct: native N-terminus MNSFTN by printed primer
T1 sequence (D5DCL0 1-217): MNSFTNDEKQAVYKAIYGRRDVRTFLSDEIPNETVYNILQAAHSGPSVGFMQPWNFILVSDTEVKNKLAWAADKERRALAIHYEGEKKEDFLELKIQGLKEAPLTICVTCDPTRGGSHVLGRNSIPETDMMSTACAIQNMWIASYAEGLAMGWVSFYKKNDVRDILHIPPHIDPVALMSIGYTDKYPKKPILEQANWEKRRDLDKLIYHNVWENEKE

BluB(Rc) = target: T2, BluB(Rc) (Rhodobacter capsulatus, UniProt D5AV14); assay: HPLC of DMB formed; stopped-flow detection of 4a-peroxyflavin at […] nm; format: biochemical; details: O2 required; 20 mM Tris-HCl pH 8.0, 100 mM NaCl; FMN reduced by NADH (HPLC) or dithionite (stopped-flow)
T2 construct: N-terminal His6 tag with thrombin site (pET14b), expressed in E. coli BL21star(DE3)pLysS, 25 kDa on SDS-PAGE; native N-terminus MNFEQT by printed primer

CbiY(Bm) = target: T3, CbiY(Bm) (Priestia megaterium, UniProt D5DG39); assay: UV-visible spectrum of purified holoprotein; heat release, HPLC and mass spectrometry; format: binding; details: non-covalently bound, co-purified
T3 construct: native N-terminus MTIISQLK by primer
T3 sequence (D5DG39 1-189): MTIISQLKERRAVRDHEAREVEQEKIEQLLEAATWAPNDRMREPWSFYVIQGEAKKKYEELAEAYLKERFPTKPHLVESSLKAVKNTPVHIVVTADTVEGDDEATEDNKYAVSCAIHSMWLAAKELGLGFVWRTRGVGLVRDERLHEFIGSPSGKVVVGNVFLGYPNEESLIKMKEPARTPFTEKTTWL

T2 sequence (D5AV14 whole entry): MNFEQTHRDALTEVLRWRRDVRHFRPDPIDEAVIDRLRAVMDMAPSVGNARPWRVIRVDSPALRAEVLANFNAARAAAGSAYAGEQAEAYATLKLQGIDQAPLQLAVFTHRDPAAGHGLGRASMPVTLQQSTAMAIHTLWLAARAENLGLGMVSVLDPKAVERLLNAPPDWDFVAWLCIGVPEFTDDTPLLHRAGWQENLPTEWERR

| Compound | HPLC of DMB formed (BluB(Bm)) | HPLC of DMB formed; stopped-flow detection of 4a-peroxyflavin at 380 nm (BluB(Rc)) | UV-visible spectrum of purified holoprotein; heat release, HPLC and mass spectro (CbiY(Bm)) |
| --- | --- | --- | --- |
| Cc1cc2c(cc1C)N(C[C@H](O)[C@H](O)[C@H](O)COP(=O)(O)O)c1[nH]c(=O)[nH]c(=O)c1N2 [FMNH2] | DMB formation was observed in reaction mixtures containing either BluB(Rc) or BluB(Bm) | In the case of the BluB(Rc) enzyme, rapid formation of a peroxyflavin intermediate |  |
| Cc1cc2nc3c(=O)[nH]c(=O)nc-3n(C[C@H](O)[C@H](O)[C@H](O)COP(=O)(O)O)c2cc1C [FMN] |  |  | The flavin cofactor could be removed from the holoenzyme by denaturing the protein |
